Experimental data: patent US8444953B2, “Symmetric and asymmetric halogen-containing metallocarboranylporphyrins and uses thereof” (Brookhaven Science Associates, LLC, priority 2007, dated 2013)
Marks after values point to notes of the source that are not given here.

Legend:
[1] = Weight changes and hematologic parameters that indicate toxicity; assay type: in vivo, mice; conditions: for % Weight change / Granulocytes / Lymphocytes / Platelets: 220 mg/kg (43 mg B/kg), median (range)
[2] = test system: BALB/c mice bearing subcutaneously implanted EMT-6 mammary carcinomas; assay: Biodistribution of porphyrin XV in mice bearing EMT-6 carcinomas (boron analyses of tissues); assay type: in vivo; conditions: 220 mg/kg (43 mg B/kg), 6 i.p. injections over 2 days, median (range), n = 5
Description: Porphyrin compound (XV) was emulsified in 9% Cremophor EL and 18% propylene glycol in saline.
To prepare a solution of ˜3.7 mg/mL porphyrin in 9% Cremophor EL (CRM) and 18% propylene glycol (PRG), the porphyrin was dissolved in tetrahydrofuran (THF) (1.5% of the total volume) and then heated to 40° C. for 15 min. CRM (9% of total volume) was then added and the mixture was heated to 60° C., for 2 hours, which removed most of the THF. After cooling to room temperature, PRG (18% of total volume) was added, followed by slow dropwise addition of saline (71.5% of total volume) with rapid stirring. The solution was degassed by stirring under vacuum (˜30 mm Hg) for 30-60 min and then filtered (Millipore, 8 μm).
BALB/c mice bearing subcutaneously implanted EMT-6 mammary carcinomas implanted on the dorsal thorax were given a total dose of 220 milligrams porphyrin compound XV per kilogram body weight (43 mg B/kg). At one and two days after the last injection, mice were euthanized, and tumor, blood, brain, and liver were removed for boron analyses. The blood was first analyzed for hematologic parameters that indicate toxicity before it was analyzed for boron.

[3] = mice, 1 day after last injection
[4] = mice, 2 days after last injection

In the case of “Copper (II) 5,10,15-tris[3-o-carboranylmethoxyphenyl]-20-[2,6-difluorophenyl]porphyrin [Porphyrin XV]”, the “median % weight loss (in words)” value ([1]; mice receiving porphyrin, 220 mg/kg) is reported as “not significant”, the “% Weight change” value [1, 3] is reported as −0.6 (−3.4-3.3) % and the Granulocytes [1, 3] is reported as 52 (49.8-65.1). The Lymphocytes [1, 3] was 44.3 (31.8-46.5)^b, the Platelets [1, 3] was 374 (158-879)^a and the “% Weight change” value [1, 4] was −0.2 (−3.3-3.8) %. For the same substance, the Granulocytes [1, 4] was 54.0 (52.4-57.8), the Lymphocytes [1, 4] was 42.6 (38.4-44.1) and the Platelets [1, 4] was 478 (91-661)^b. The “toxicity (in words)” value ([1]; mice, 220 mg/kg, weight and hematologic parameters) was “quite mild and transient”, the “Average boron concentration, Blood” value ([2]; 1 day after last injection) was 47 (38-121) μg B/g and the “Average boron concentration, Brain” value ([2]; 1 day after last injection) was 1.0 (0.6-1.7) μg B/g. For the same substance, the “Average boron concentration, EMT-6 Tumor” value ([2]; 1 day after last injection) was 66 (24-153) μg B/g, the “Average boron concentration, Liver” value ([2]; 1 day after last injection) was 300 (245-319) μg B/g and the “Average boron concentration, Skin (pinna)” value ([2]; 1 day after last injection) was 5.9 (4.9-9.9) μg B/g. The “Average boron concentration, Blood” value ([2]; 2 days after last injection) was 0.4 (0.3-4.5) μg B/g, the “Average boron concentration, Brain” value ([2]; 2 days after last injection) was 0.1 (0-0.2) μg B/g and the “Average boron concentration, EMT-6 Tumor” value ([2]; 2 days after last injection) was 88 (44-115) μg B/g. The “Average boron concentration, Liver” value ([2]; 2 days after last injection) was 375 (364-419) μg B/g and the “Average boron concentration, Skin (pinna)” value ([2]; 2 days after last injection) was 6.6 (3.6-8.1) μg B/g.
